# Reference: patent US9565840B2, “Fibrotic non-human animal, and use thereof” (KYOTO UNIVERSITY, priority 2012, dated 2017)
# Residues, ends and D or L forms follow the SMILES beside them. *: point of attachment. Cbz = O=C(OCc1ccccc1)*
# Test system: IKKβ
# Assay: IKKβ level in fibroblasts from the skin of scleroderma patients, MG132 pre-treatment before IL-1β stimulation
# Assay type: cell-based, human
# Conditions: fibroblast from the skin of scleroderma patients; 2 μM MG132 for 2 hr before IL-1β (2.5 ng/mL, 60 min) stimulation; FIG. 11-3
# Experimental: The skin of scleroderma patients (n=5) and healthy individual (n=5) was collected by biopsy, and fibroblast was prepared. The fibroblast was cultured in DMEM medium added with L-glutamine, penicillin/streptomycin and 10% FCS at 37° C., 5% CO2 concentration. After culture, nuclear protein was extracted from the fibroblast by using NE-PER nuclear protein cytoplasmic protein separation extraction kit (Thermo Scientific), and the p65 protein levels of the whole-cell lysate and nuclear extract were compared. RNA was isolated from the fibroblast by using RNA aqueous (trade mark) kit (Applied Biosytems (trade mark)), and the p65 mRNA level was compared using TaqMan (registered trade mark) Gene Expression Assays kit (Applied Biosytems (trade mark)). The NFκB activity of the fibroblast was measured by NFκB p65 Transcription Assay Kit (Thermo Scientific) and compared. […] Further, fibroblasts from the skin of scleroderma patients were stimulated for 60 min with IL-1β (2.5 ng/mL), and IKKβ and nuclear p65 protein amounts were compared. […] In addition, fibroblast from the skin of scleroderma patients was treated with 2 μM MG132 for 2 hr before the aforementioned IL-β stimulation, and the IKKβ level was measured.
structure (smiles),measurement,value
CC(C)C[C@@H](C=O)NC(=O)[C@H](CC(C)C)NC(=O)[C@H](CC(C)C)NC(=O)OCc1ccccc1 [MG132] (Cbz-Leu-Leu-Leu-aldehyde),IKKβ level,recovered the IKKβ level
